In patent publication US12534452B2, “N-(1H-imidazol-2-yl)benzamide compound and pharmaceutical composition comprising the same as active ingredient” (KAINOS MEDICINE, INC., priority 2019, dated 2026):
pIC50: −log10 of the molar value.

The compounds below were run against IRAK4 (Homo sapiens (Human), UniProt Q9NWZ3) (assay: In vitro IRAK4 phosphorylation activity assay). Details: [γ-33P]-ATP, myelin basic protein substrate, 40 minutes at room temperature; categories.
Type: biochemical
In short: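 Radiometric filter-binding assay, no compound–kinase preincubation; 8 mM MOPS pH 7.0, 0.2 mM EDTA, 10 mM Mg acetate, 0.33 mg/mL myelin basic protein substrate, [γ-33P]-ATP. Reaction 40 min at room temperature, stopped with phosphoric acid, scintillation counting; IC50 reported in categories.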

IRAK4, sequence (Q9NWZ3 whole entry): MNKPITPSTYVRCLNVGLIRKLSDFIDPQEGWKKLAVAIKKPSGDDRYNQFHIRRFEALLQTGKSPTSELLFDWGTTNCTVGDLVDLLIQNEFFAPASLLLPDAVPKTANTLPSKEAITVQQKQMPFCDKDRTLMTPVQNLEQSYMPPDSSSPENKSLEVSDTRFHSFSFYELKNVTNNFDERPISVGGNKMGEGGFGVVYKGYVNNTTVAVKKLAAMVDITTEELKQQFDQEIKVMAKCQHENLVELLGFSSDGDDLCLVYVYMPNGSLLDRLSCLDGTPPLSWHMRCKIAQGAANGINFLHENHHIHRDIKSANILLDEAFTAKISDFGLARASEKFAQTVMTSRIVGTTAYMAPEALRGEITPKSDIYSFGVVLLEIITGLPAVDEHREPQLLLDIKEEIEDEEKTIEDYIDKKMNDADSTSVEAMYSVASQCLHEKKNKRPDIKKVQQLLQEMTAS

Row | SMILES | pIC50
1 | Cn1cc(-c2cccc(C(=O)Nc3nc(CCCC(=O)NCCCO)cn3-c3ccccc3)c2)cn1 [Example 165, N-(4-(4-((3-hydroxypropyl)amino)-4-oxobutyl)-1-phenyl-1H-imidazol-2-yl)-3-(1-methyl-1H-pyrazol-4-yl)benzamide] | > 7.30
2 | CN1CCN(C(=O)CCCc2cn(-c3ccccc3)c(NC(=O)c3cccc(-c4ccc5ncsc5c4)c3)n2)CC1 [Example 280, 3-(benzo[d]thiazol-6-yl)-N-(4-(4-(4-methylpiperazin-1-yl)-4-oxobutyl)-1-phenyl-1H-imidazol-2-yl)benzamide] | > 7.30
3 | Cn1cc(-c2cccc(C(=O)Nc3nc(CCCC(=O)N4CCC(N5CCCC5)CC4)cn3-c3ccccc3)c2)cn1 [Example 154, 3-(1-methyl-1H-pyrazol-4-yl)-N-(4-(4-oxo-4-(4-(pyrrolidin-1-yl)piperidin-1-yl)butyl)-1-phenyl-1H-imidazol-2-yl)benzamide] | > 7.30
4 | CN1CCN(C(=O)CCCCCc2cn(-c3ccccc3)c(NC(=O)c3cccc(-c4ccc5[nH]ncc5c4)c3)n2)CC1 [Example 239, 3-(1H-indazol-5-yl)-N-(4-(6-(4-methylpiperazin-1-yl)-6-oxohexyl)-1-phenyl-1H-imidazol-2-yl)benzamide] | > 7.30
5 | Cn1cc(-c2cccc(C(=O)Nc3nc(CCCC(=O)Nc4ccc5c(cnn5C)c4)cn3-c3ccccc3)c2)cn1 [Example 191, N-(4-(4-((1-methyl-1H-indazol-5-yl)amino)-4-oxobutyl)-1-phenyl-1H-imidazol-2-yl)-3-(1-methyl-1H-pyrazol-4-yl)benzamide] | > 7.30
6 | Cn1cc(-c2cccc(C(=O)Nc3nc(CCCC(=O)NC4CCOC4)cn3-c3ccccc3)c2)cn1 (stereo not drawn) [Example 179, 3-(1-methyl-1H-pyrazol-4-yl)-N-(4-(4-oxo-4-((tetrahydrofuran-3-yl)amino)butyl)-1-phenyl-1H-imidazol-2-yl)benzamide] | > 7.30
7 | O=C(CCCc1cn(-c2ccccc2)c(NC(=O)c2cccc(-c3cn[nH]c3)c2)n1)NC1CCC1 [Example 69, N-(4-(4-(cyclobutylamino)-4-oxobutyl)-1-phenyl-1H-imidazol-2-yl)-3-(1H-pyrazol-4-yl)benzamide] | > 7.30
8 | CN1CCN(CCNC(=O)CCCc2cn(-c3ccccc3)c(NC(=O)c3cccc(-c4cnn(C)c4)c3)n2)CC1 [Example 187, 3-(1-methyl-1H-pyrazol-4-yl)-N-(4-(4-((2-(4-methylpiperazin-1-yl)ethyl)amino)-4-oxobutyl)-1-phenyl-1H-imidazol-2-yl)benzamide] | > 7.30
9 | O=C(CCc1cn(-c2ccccc2)c(NC(=O)c2cccc(-c3cn[nH]c3)c2)n1)Nc1ccc(F)cc1F [Example 16, N-(4-(3-((2,4-difluorophenyl)amino)-3-oxopropyl)-1-phenyl-1H-imidazol-2-yl)-3-(1H-pyrazol-4-yl)benzamide] | > 7.30
10 | O=C(CCCCCc1cn(-c2ccccc2)c(NC(=O)c2cccc(-c3cn[nH]c3)c2)n1)Nc1ccccc1 [Example 90, N-(4-(6-oxo-6-(phenylamino)hexyl)-1-phenyl-1H-imidazol-2-yl)-3-(1H-pyrazol-4-yl)benzamide] | > 7.30
11 | COC[C@@H]1CCCN1C(=O)CCCCCc1cn(-c2ccccc2)c(NC(=O)c2cccc(-c3cn[nH]c3)c2)n1 [Example 100, (S)—N-(4-(6-(2-(methoxymethyl)pyrrolidin-1-yl)-6-oxohexyl)-1-phenyl-1H-imidazol-2-yl)-3-(1H-pyrazol-4-yl)benzamide] | > 7.30
12 | O=C(Nc1nc(CCCCCNc2ccccc2)cn1-c1ccccc1)c1cccc(-c2cn[nH]c2)c1 [Example 117, N-(1-phenyl-4-(5-(phenylamino)pentyl)-1H-imidazol-2-yl)-3-(1H-pyrazol-4-yl)benzamide] | > 7.30
13 | O=C(Nc1nc(CCCN2CCOCC2)cn1-c1ccccc1)c1cccc(-c2cn[nH]c2)c1 [Example 107, N-(4-(3-morpholinopropyl)-1-phenyl-1H-imidazol-2-yl)-3-(1H-pyrazol-4-yl)benzamide] | > 7.30
14 | CN1CCN(C(=O)CCCCCc2cn(-c3ccccc3)c(NC(=O)c3cccc(-c4cnn(C)c4)c3)n2)CC1 [Example 201, 3-(1-methyl-1H-pyrazol-4-yl)-N-(4-(6-(4-methylpiperazin-1-yl)-6-oxohexyl)-1-phenyl-1H-imidazol-2-yl)benzamide] | > 7.30
15 | COC[C@@H]1CCCN1NC(=O)CCc1cn(-c2ccccc2)c(NC(=O)c2cccc(-c3cn[nH]c3)c2)n1 [Example 13, (S)—N-(4-(3-((2-(methoxymethyl)pyrrolidin-1-yl)amino)-3-oxopropyl)-1-phenyl-1H-imidazol-2-yl)-3-(1H-pyrazol-4-yl)benzamide] | 7.00 to 7.30
16 | O=C(CCc1cn(-c2ccccc2)c(NC(=O)c2cccc(-c3c[nH]nc3[N+](=O)[O-])c2)n1)Nc1ccccc1 [Example 1, 3-(3-nitro-1H-pyrazol-4-yl)-N-(4-(3-oxo-3-(phenylamino)propyl)-1-phenyl-1H-imidazol-2-yl)benzamide] | < 7.00
17 | Cn1ncc2cc(-c3cccc(C(=O)Nc4nc(CCCCCCN5CCOCC5)cn4-c4ccccc4)c3)ccc21 [Example 264, 3-(1-methyl-1H-indazol-5-yl)-N-(4-(6-morpholinohexyl)-1-phenyl-1H-imidazol-2-yl)benzamide] | < 7.00

Row | SMILES | pIC50
18 | CNC(=O)CCCc1cn(C2CCCCC2)c(NC(=O)c2cccc(-c3cn[nH]c3)c2)n1 [Example 296, N-(1-cyclohexyl-4-(4-(methylamino)-4-oxobutyl)-1H-imidazol-2-yl)-3-(1H-pyrazol-4-yl)benzamide] | > 7.30
19 | CC1(C)CCCN(C(=O)CCc2cn(-c3ccccc3)c(NC(=O)c3cccc(-c4cn[nH]c4)c3)n2)C1 [Example 34, N-(4-(3-(3,3-dimethylpiperidin-1-yl)-3-oxopropyl)-1-phenyl-1H-imidazol-2-yl)-3-(1H-pyrazol-4-yl)benzamide] | > 7.30
20 | CN1CCN(C(=O)CCCc2cn(-c3ccccc3)c(NC(=O)c3cccc(-c4ccc5[nH]ncc5c4)c3)n2)CC1 [Example 247, 3-(1H-indazol-5-yl)-N-(4-(4-(4-methylpiperazin-1-yl)-4-oxobutyl)-1-phenyl-1H-imidazol-2-yl)benzamide] | > 7.30
21 | Cn1cc(-c2cccc(C(=O)Nc3nc(CCCCCC(=O)NC4CC4)cn3-c3ccccc3)c2)cn1 [Example 199, N-(4-(6-(cyclopropylamino)-6-oxohexyl)-1-phenyl-1H-imidazol-2-yl)-3-(1-methyl-1H-pyrazol-4-yl)benzamide] | > 7.30
22 | O=C(Nc1nc(CCCC(=O)N2CCCCC2)cn1-c1ccccc1)c1cccc(-c2ccc3[nH]ncc3c2)c1 [Example 246, 3-(1H-indazol-5-yl)-N-(4-(4-oxo-4-(piperidin-1-yl)butyl)-1-phenyl-1H-imidazol-2-yl)benzamide] | > 7.30
23 | Cn1cc(-c2cccc(C(=O)Nc3nc(CCCC(=O)N4CCCC(O)C4)cn3-c3ccccc3)c2)cn1 (stereo not drawn) [Example 178, N-(4-(4-(3-hydroxypiperidin-1-yl)-4-oxobutyl)-1-phenyl-1H-imidazol-2-yl)-3-(1-methyl-1H-pyrazol-4-yl)benzamide] | > 7.30
24 | O=C(Nc1nc(CCCO)cn1-c1ccccc1)c1cccc(-c2cn[nH]c2)c1 [Example 105, N-(4-(3-hydroxypropyl)-1-phenyl-1H-imidazol-2-yl)-3-(1H-pyrazol-4-yl)benzamide] | > 7.30
25 | O=C(Nc1nc(CCCCN2CCCCC2)cn1-c1ccccc1)c1cccc(-c2cccc3[nH]ncc23)c1 [Example 257, 3-(1H-indazol-4-yl)-N-(1-phenyl-4-(4-(piperidin-1-yl)butyl)-1H-imidazol-2-yl)benzamide] | > 7.30
26 | Cn1cc(-c2cccc(C(=O)Nc3nc(CCCCC(=O)NC4CCOCC4)cn3-c3ccccc3)c2)cn1 [Example 197, 3-(1-methyl-1H-pyrazol-4-yl)-N-(4-(5-oxo-5-((tetrahydro-2H-pyran-4-yl)amino)pentyl)-1-phenyl-1H-imidazol-2-yl)benzamide] | > 7.30
27 | CNC(=O)CCCc1cn(-c2ccccc2)c(NC(=O)c2cccc(-c3ccncc3)c2)n1 [Example 266, N-(4-(4-(methylamino)-4-oxobutyl)-1-phenyl-1H-imidazol-2-yl)-3-(pyridin-4-yl)benzamide] | > 7.30
28 | O=C(Nc1nc(CCCN2CCSCC2)cn1-c1ccccc1)c1cccc(-c2cn[nH]c2)c1 [Example 110, N-(1-phenyl-4-(3-thiomorpholinopropyl)-1H-imidazol-2-yl)-3-(1H-pyrazol-4-yl)benzamide] | > 7.30
29 | O=C(Nc1nc(CCCCO)cn1-c1ccccc1)c1cccc(-c2cn[nH]c2)c1 [Example 111, N-(4-(4-hydroxybutyl)-1-phenyl-1H-imidazol-2-yl)-3-(1H-pyrazol-4-yl)benzamide] | > 7.30
30 | O=C(CCc1cn(-c2ccncc2)c(NC(=O)c2cccc(-c3cn[nH]c3)c2)n1)Nc1ccccc1 [Example 303, N-(4-(3-oxo-3-(phenylamino)propyl)-1-(pyridin-4-yl)-1H-imidazol-2-yl)-3-(1H-pyrazol-4-yl)benzamide] | < 7.00
31 | O=C(Nc1nc(CCCCNC(=O)C2CC2)cn1-c1ccccc1)c1cccc(-c2ccc3[nH]ncc3c2)c1 [Example 261, N-(4-(4-(cyclopropanecarboxamido)butyl)-1-phenyl-1H-imidazol-2-yl)-3-(1H-indazol-5-yl)benzamide] | > 7.30
32 | O=C(Nc1nc(CCC[N+]2([O-])CCOCC2)cn1-c1ccccc1)c1cccc(-c2cn[nH]c2)c1 [Example 126, 4-(3-(2-(3-(1H-pyrazol-4-yl)benzamido)-1-phenyl-1H-imidazol-4-yl)propyl)morpholine 4-oxide] | > 7.30
33 | O=C(Nc1nc(CCC(=O)N2CCCC[C@H]2C(F)(F)F)cn1-c1ccccc1)c1cccc(-c2cn[nH]c2)c1 [Example 38, (S)—N-(4-(3-oxo-3-(2-(trifluoromethyl)piperidin-1-yl)propyl)-1-phenyl-1H-imidazol-2-yl)-3-(1H-pyrazol-4-yl)benzamide] | > 7.30
